Measurements: PMC9432691, “Characterisation of a soil MINPP phytase with remarkable long-term stability and activity from Acinetobacter sp” (PLoS ONE, 2022)

Biological target: T1, AtITPK1 (inositol tris/tetrakisphosphate kinase 1) (Arabidopsis thaliana, UniProt Q9SBA5)
T1 construct: gene ITPK1
T1 sequence (Q9SBA5 2-319): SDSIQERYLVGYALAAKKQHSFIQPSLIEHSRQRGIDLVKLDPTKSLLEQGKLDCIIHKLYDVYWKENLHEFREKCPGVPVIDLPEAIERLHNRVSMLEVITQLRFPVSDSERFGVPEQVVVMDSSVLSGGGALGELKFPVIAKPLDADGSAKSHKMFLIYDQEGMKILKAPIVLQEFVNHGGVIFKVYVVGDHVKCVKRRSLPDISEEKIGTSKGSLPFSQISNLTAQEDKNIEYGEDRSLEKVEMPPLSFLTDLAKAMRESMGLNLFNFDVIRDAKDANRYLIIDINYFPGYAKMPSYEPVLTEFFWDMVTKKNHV
Experiment: pyrophosphorylation assay with […] substrate, HPLC; […] conversion
Format: biochemical

Question: With `O=P(O)(O)O[C@H]1[C@H](OP(=O)(O)O)[C@@H](OP(=O)(O)O)[C@H](OP(=O)(O)O)[C@@H](OP(=O)(O)O)[C@H]1OP(=O)(O)O` [InsP6, myo-inositol 1,2,3,4,5,6-hexakisphosphate] as the compound, how does the “% conversion” value read?
Answer: Its value is 90 % conversion.
